Measured values: patent US7960393B2, “Pyrimidine derivatives useful for the treatment of diseases mediated by CRTH2” (Actimis Pharmaceuticals, Inc., priority 2002, dated 2011)
pIC50: −log10 of the molar value.

What follows are molecules tested against T1, human CRTH2 (Homo sapiens, UniProt Q9Y5Y4) (assay: Measurement of Ca2+ mobilization in the human CRTH2-transfected L1.2 cell line (Assay 1)). Conditions: PGD2-induced Ca2+ mobilization in CRTH2-transfected L1.2 cells; compounds as yielded by solid phase synthesis, purity about 40 to 90%; read-out: Activity class.
T1 construct: expressed in transfected cells; host or cells: L1.2 cells, pEAK expression vector, puromycin-selected
T1 sequence (Q9Y5Y4 1-395): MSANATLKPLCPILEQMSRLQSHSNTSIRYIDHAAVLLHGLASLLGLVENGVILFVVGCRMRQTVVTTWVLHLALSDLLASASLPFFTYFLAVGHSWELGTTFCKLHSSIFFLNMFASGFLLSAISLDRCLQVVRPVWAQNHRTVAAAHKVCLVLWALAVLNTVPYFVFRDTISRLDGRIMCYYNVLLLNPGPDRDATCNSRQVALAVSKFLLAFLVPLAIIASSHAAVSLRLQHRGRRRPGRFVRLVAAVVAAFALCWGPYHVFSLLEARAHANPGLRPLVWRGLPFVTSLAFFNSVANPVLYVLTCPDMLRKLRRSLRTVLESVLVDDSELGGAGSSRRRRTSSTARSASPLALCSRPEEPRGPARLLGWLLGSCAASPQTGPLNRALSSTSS
Format: cell-based
Description: Human CRTH2 cDNA was amplified from human eosinophil cDNA with gene specific primers containing restriction sites for cloning into pEAK vector (Edge Bio Systems). The human CRTH2 cDNA was cloned into the mammalian expression vector pEAK. This expression plasmid (40 μg) was transfected into L1.2 cells, at a cell density of 1×10^7 cells/500 μl, by using electroporation apparatus (Gene Pulser II, BioRad) at 250V/1,000 μF. One day after the transfection, puromycin (1 μg/ml, Sigma) was added into the cell culture plates. Two weeks after the transfection, grown cells were picked up for further growth.
[Measurement of Ca^2+ Mobilization in the Human CRTH2-Transfected L1.2 Cell Line] (Assay 1)
Ca^2+ loading buffer was prepared by mixing 5 μl of Fluo-3AM (2 mM in DMSO, final 1 μM, Molecular Probes) and 10 μl of pluronic F-127 (Molecular Probes) and diluting the resulting mixture in 10 ml of Ca^2+ assay buffer (20 mM HEPES pH 7.6, 0.1% BSA, 1 mM probenecid, Hanks' solution). The CRTH2 transfected cells which were prepared in Example 1 were washed with PBS, resuspended in Ca^2+ loading buffer at 1×10^7 cells/ml, and incubated for 60 min at room temperature. After incubation, cells were washed and resuspended in Ca^2+ assay buffer, then dispensed into transparent-bottom 96-well plates (#3631, Costar) at 2×10^5 cells/well. Cells were incubated with various concentrations of test compound for 5 minutes at room temperature. The emitted 480 nm fluorescence was measured on FDSS6000, a Ca^2+-measurement apparatus (Hamamatsu Photonics, Hamamatsu, Japan).
Assay results in Assay 1 are shown in Examples and tables of the Examples below. The data corresponds to the compounds as yielded by solid phase synthesis and thus to levels of purity of about 40 to 90%. For practical reasons, the compounds are grouped in four classes of activity as follows: IC50=A(< or =)10 nM<B(< or =)100 nM<C(< or =)500 nM<D

`O=C(O)Cc1c(Cl)nc(Cc2ccc(NC(=O)c3ccc4ccccc4c3)cc2)nc1N1CCC(O)C1` (centres unmarked) [Example 3-13] and `O=C(O)Cc1c(Cl)nc(Cc2ccc(NC(=O)c3ccc4ccccc4c3)cc2)nc1N1CCCC1` [Example 3-1, {4-Chloro-2-[4-(2-naphthoylamino)benzyl]-6-pyrrolidin-1-ylpyrimidin-5-yl}acetic acid] cannot be ordered by pIC50: greater than 8.00 for the first, greater than 8.00 for the second.

`Cc1nc(Cc2ccc(NC(=O)c3ccc(Cl)c(Cl)c3)cc2)nc(N2CCCC2)c1CC(=O)O` [Example 8-2] and `COc1ccc(C(=O)Nc2ccc(Cc3nc(Cl)c(CC(=O)O)c(N4CCCC4)n3)cc2)cc1Cl` [Example 3-16] cannot be ordered by pIC50: greater than 8.00 for the first, greater than 8.00 for the second.

Compared with `CN(CC(=O)O)c1nc(Cc2ccc(NC(=O)c3ccc4ccccc4c3)cc2)nc(Cl)c1CC(=O)O` [Example 3-2], `CCN(C)c1nc(Cc2ccc(NC(=O)c3ccc4ccccc4c3)cc2)nc(Cl)c1CC(=O)O` [Example 3-12] is higher in pIC50: 7.00 to 8.00 for the first, greater than 8.00 for the second. The second is the more potent here.

`CN(C)c1nc(Cc2ccc(N(C)C(=O)c3ccc4ccccc4n3)cc2)nc(Cl)c1CC(=O)O` [Example 6-3] and `CN(C)c1nc(Cc2ccc(N(C)C(=O)/C=C/c3ccccc3)cc2)nc(Cl)c1CC(=O)O` [Example 6-2] cannot be ordered by pIC50: less than 6.30 for the first, less than 6.30 for the second.

`CN(CC(=O)NC1CCCC1)c1nc(Cc2ccc(NC(=O)NCCc3ccccc3)cc2)nc(Cl)c1CC(=O)O` [Example 4-3] and `CN(CC(=O)NC1CCCC1)c1nc(Cc2ccc(NC(=O)NCc3ccccc3)cc2)nc(Cl)c1CC(=O)O` [Example 4-2] fall in the same range of pIC50: 7.00 to 8.00 for the first, 7.00 to 8.00 for the second.

Compared with `CN(C)c1nc(Cc2ccc(NC(=O)c3ccc4ccccc4c3)cc2)nc(N2CCOCC2)c1CC(=O)O` [Example 7-1, {4-(Dimethylamino)-6-morpholin-4-yl-2-[4-(2-naphthoylamino)benzyl]pyrimidin-5-yl}acetic acid], `O=C(O)Cc1c(Cl)nc(Cc2ccc(NC(=O)c3ccc4ccccc4c3)cc2)nc1N1CCOCC1` [Example 3-6] is higher in pIC50: 7.00 to 8.00 for the first, greater than 8.00 for the second. The second is the more potent here.

First: CN(C)c1nc(Cc2ccc(NC(=O)c3ccc(Cl)cc3)cc2)ncc1CC(=O)O [Example 2-6]
Second: CN(C)c1nc(Cc2ccc(NC(=O)c3ccc(F)cc3)cc2)ncc1CC(=O)O [Example 2-20]
The pIC50 of the first is higher: greater than 8.00 for the first, 7.00 to 8.00 for the second.

`O=C(O)Cc1c(Cl)nc(Cc2ccc(NC(=O)c3ccc4ccccc4c3)cc2)nc1N1CCCCC1` [Example 3-7] and `Cc1nc(Cc2ccc(NC(=O)c3ccc4ccccc4c3)cc2)nc(N2CCCC2)c1CC(=O)O` [Example 8-1, {4-Methyl-2-[4-(2-naphthoylamino)benzyl]-6-pyrrolidin-1-ylpyrimidin-5-yl}acetic acid] cannot be ordered by pIC50: greater than 8.00 for the first, greater than 8.00 for the second.

`CN(C)c1nc(Cc2ccc(NC(=O)OCc3ccc([N+](=O)[O-])cc3)cc2)ncc1CC(=O)O` [Example 9-4] and `COc1cccc(C(=O)Nc2ccc(Cc3ncc(CC(=O)O)c(N(C)C)n3)cc2)c1` [Example 2-14] fall in the same range of pIC50: 7.00 to 8.00 for the first, 7.00 to 8.00 for the second.

`CN(CC(=O)NC1CCCC1)c1nc(Cc2ccc(NC(=O)Nc3ccccc3)cc2)nc(Cl)c1CC(=O)O` [Example 4-1, {2-{4-[(Anilinocarbonyl)amino]benzyl}-4-chloro-6-[[2-(cyclopentylamino)-2-oxoethyl](methyl)amino]pyrimidin-5-yl}acetatic acid] and `CN(CC(=O)NC1CCCC1)c1nc(Cc2ccc(NC(=O)Nc3ccc4ccccc4c3)cc2)nc(Cl)c1CC(=O)O` [Example 4-4] fall in the same range of pIC50: 7.00 to 8.00 for the first, 7.00 to 8.00 for the second.

Compared with `CN(C)c1nc(Cc2ccc(NC(=O)NCc3ccccc3)cc2)ncc1CC(=O)O` [Example 4-5], `CN(Cc1ccccc1)C(=O)Nc1ccc(Cc2ncc(CC(=O)O)c(N(C)C)n2)cc1` [Example 4-6] is lower in pIC50: 7.00 to 8.00 for the first, 6.30 to 7.00 for the second. The first is the more potent here.

`Cc1nc(Cc2ccc(NC(=O)/C=C/c3ccccc3)cc2)nc(N(C)C)c1CC(=O)O` [Example 8-5] and `CN(C)c1nc(Cc2ccc(NC(=O)/C=C/c3ccccc3)cc2)nc(N(C)C)c1CC(=O)O` [Example 7-7] cannot be ordered by pIC50: greater than 8.00 for the first, greater than 8.00 for the second.

First: CN(C)c1nc(Cc2ccc(NC(=O)c3ccc4ccccc4c3)cc2)nc(N2CCCCC2)c1CC(=O)O [Example 7-5]
Second: Cc1nc(Cc2ccc(NC(=O)c3ccc4ccccc4c3)cc2)nc(N(C)C)c1CC(=O)O [Example 8-3]
The pIC50 of the first is lower: 7.00 to 8.00 for the first, greater than 8.00 for the second. The second is the more potent here.

`CN(CC(=O)NC1CCCC1)c1nc(Cc2ccc(NC(=O)/C=C/c3ccccc3)cc2)ncc1CC(=O)O` [Example 2-5] and `CN(CC(=O)NC1CCCC1)c1nc(Cc2ccc(NC(=O)c3ccc4ccccc4c3)cc2)ncc1CC(=O)O` [Example 2-2] cannot be ordered by pIC50: greater than 8.00 for the first, greater than 8.00 for the second.

Compared with `CN(C)c1nc(Cc2ccc(NC(=O)c3ccc4ccccc4c3)cc2)nc(N(C)C)c1CC(=O)O` [Example 7-3], `CC(C)N(C)c1nc(Cc2ccc(NC(=O)c3ccc4ccccc4c3)cc2)nc(Cl)c1CC(=O)O` [Example 3-4] is higher in pIC50: 7.00 to 8.00 for the first, greater than 8.00 for the second. The second is the more potent here.

`O=C(O)Cc1c(Cl)nc(Cc2ccc(NC(=O)c3ccc4ccccc4c3)cc2)nc1N1CC=CC1` [Example 3-10] and `COc1nc(Cc2ccc(NC(=O)c3ccc4ccccc4c3)cc2)nc(Cl)c1CC(=O)O` [Example 3-9] cannot be ordered by pIC50: greater than 8.00 for the first, greater than 8.00 for the second.

`Cc1nc(Cc2ccc(NC(=O)c3ccc(Cl)c(Cl)c3)cc2)nc(N(C)C)c1CC(=O)O` [Example 8-4] and `CN(C)c1nc(Cc2ccc(NC(=O)c3ccc(Cl)c(Cl)c3)cc2)nc(N(C)C)c1CC(=O)O` [Example 7-6] cannot be ordered by pIC50: greater than 8.00 for the first, greater than 8.00 for the second.

First: CCN(CC)c1nc(Cc2ccc(NC(=O)c3ccc4ccccc4c3)cc2)nc(Cl)c1CC(=O)O [Example 3-11]
Second: CN(c1nc(Cc2ccc(NC(=O)c3ccc4ccccc4c3)cc2)nc(Cl)c1CC(=O)O)C1CCCCC1 [Example 3-3]
The pIC50 of the first is lower: 7.00 to 8.00 for the first, greater than 8.00 for the second.

`CN(C)c1nc(Cc2ccc(NC(=O)/C=C/c3ccc(C(F)(F)F)cc3)cc2)ncc1CC(=O)O` [Example 2-17] and `CN(C)c1nc(Cc2ccc(NC(=O)c3ccc(OC(F)(F)F)cc3)cc2)ncc1CC(=O)O` [Example 2-19] cannot be ordered by pIC50: greater than 8.00 for the first, greater than 8.00 for the second.

`CC(c1ccc(NC(=O)c2ccc3ccccc3c2)cc1)c1ncc(CC(=O)O)c(N(C)C)n1` (centres unmarked) [Example 2-18] and `CN(CC(=O)N1CCCC1)c1nc(Cc2ccc(NC(=O)c3ccc4ccccc4c3)cc2)ncc1CC(=O)O` [Example 2-3] cannot be ordered by pIC50: greater than 8.00 for the first, greater than 8.00 for the second.

Compared with `CSc1ccc(C(=O)Nc2ccc(Cc3nc(Cl)c(CC(=O)O)c(N4CCCC4)n3)cc2)cc1` [Example 3-15], `O=C(O)Cc1c(Cl)nc(Cc2ccc(NC(=O)c3ccc4ccccc4c3)cc2)nc1N1CCC[C@H]1C(=O)O` [Example 3-14] is lower in pIC50: greater than 8.00 for the first, 7.00 to 8.00 for the second. The first is the more potent here.

First: CN(C)c1nc(Cc2ccc(NC(=O)c3ccc(S(N)(=O)=O)cc3)cc2)nc(Cl)c1CC(=O)O [Example 1-40]
Second: CN(C)c1nc(Cc2ccc(NC(=O)c3ccc4cc[nH]c4c3)cc2)nc(Cl)c1CC(=O)O [Example 3-8]
The pIC50 of the first is lower: 6.30 to 7.00 for the first, greater than 8.00 for the second. The second is the more potent here.

First: CN(C)c1nc(Cc2ccc(NC(=O)c3ccc4ccccc4c3)cc2)nc(Cl)c1CC#N [Example 12, N-(4-{[4-Chloro-5-(cyanomethyl)-6-(dimethylamino)pyrimidin-2-yl]methyl}phenyl)-2-naphthamide]
Second: CCCCCCCNc1ccc(Cc2nc(Cl)c(CC(=O)O)c(N(C)CC(=O)NC3CCCC3)n2)cc1 [Example 5-5]
The pIC50 of the first is higher: 6.30 to 7.00 for the first, less than 6.30 for the second. The first is the more potent here.

With `CN(CC(=O)NC1CCCC1)c1nc(Cc2ccc(NCC3CCCCC3)cc2)nc(Cl)c1CC(=O)O` [Example 5-1, {4-Chloro-2-{4-[(cyclohexylmethyl)amino]benzyl}-6-[[2-(cyclopentylamino)-2-oxoethyl](methyl)amino]pyrimidin-5-yl}acetic add] the pIC50 was less than 6.30.
